Data on 30 compounds can be found in patent US10005774B2, “Syk inhibitors” (Gilead Sciences, Inc., priority 2013, dated 2018).

One assay concerns the target Syk (Homo sapiens, UniProt P43405). Briefly: High Throughput Syk Biochemical Assay (KinEASE TR-FRET). The settings on record: TABLE D, 20 μM ATP, 1 μM biotinylated peptide, 0.015 nM Syk, 30 min at room temperature, read-out: IC50. Here is the method: High Throughput Syk Biochemical Assay
Syk activity was measured using KinEASE (Cisbio), a time-resolved fluorescence resonance energy transfer (TR-FRET) immunoassay. In this assay. Syk-catalyzes the phosporylation of a XL665-labeled peptide substrate. Europium conjugated phospho-tyrosine specific antibody binds the resulting phosphorylated peptide. Formation of phosphorylated peptide is quantified by TR-FRET with Europium as the donor and XL665 the acceptor in a 2-step endpoint assay. In brief, test compounds serially diluted in DMSO were delivered into Corning white, low volume, non-binding 384 well plates using the Echo 550 acoustic liquid dispenser (Labcyte®). Syk enzyme and substrates were dispensed into assay plates using a Multi-Flo (Bio-Tek Instruments). […] Percent inhibition was calculated as follows: % Inhibition=100×(RatioSample−Ratio0% Inhibition)/(Ratio100% Inhibition−Ratio0% Inhibition)
With `C[C@@H](Oc1cc(-c2ccc(N3CCN(C4CCOCC4)CC3)cn2)cc2ncsc12)[C@H]1CNC(=O)C1` (stereo in doubt) [(R)-4-((R)-1-((5-(5-(4-(tetrahydro-2H-pyran-4-yl)piperazin-1-yl)pyridin-2-yl)benzo[d]thiazol-7-yl)oxy)ethyl)pyrrolidin-2-one], the IC50 was 2.62 nM.

For the compound `Cn1cnc2cc(-c3cnn(C(C)(C)C)c3)nc(O[C@H](CC(F)F)[C@H]3CNC(=O)C3)c21` [(R)-4-((R)-1-(6-(1-tert-butyl-1H-pyrazol-4-yl)-3-methyl-3H-imidazo[4,5-c]pyridin-4-yloxy)-3,3-difluoropropyl)pyrrolidin-2-one], the half-inhibitory concentration (IC50) was 94.8 nM.

Turning to `C[C@@H](Oc1nc(C2=CCCCC2)cc2ncn(C)c12)[C@H]1CNC(=O)C1` [(R)-4-((R)-1-(6-cyclohexenyl-3-methyl-3H-imidazo[4,5-c]pyridin-4-yloxy)ethyl)pyrrolidin-2-one], the IC50 was 124 nM.

With `C[C@@H](Oc1nc(-c2csc(C(C)(C)C)n2)cc2ncn(C)c12)[C@H]1CNC(=O)C1` [(R)-4-((R)-1-(6-(2-tert-butylthiazol-4-yl)-3-methyl-3H-imidazo[4,5-c]pyridin-4-yloxy)ethyl)pyrrolidin-2-one], the IC50 was found to be 19.3 nM.

Regarding `COc1ccc(-c2cc3ncn(CF)c3c(O[C@H](C)[C@H]3CNC(=O)C3)n2)cc1OC` [(R)-4-((R)-1-(6-(3,4-dimethoxyphenyl)-3-(fluoromethyl)-3H-imidazo[4,5-c]pyridin-4-yloxy)ethyl)pyrrolidin-2-one], the half-maximal inhibitory concentration (IC50) came to 2.49 nM.

Take `C[C@@H](Oc1nc(-c2ccc3c(c2)OCCN3C)cc2ncn(C)c12)[C@H]1CNC(=O)C1` [(R)-4-((R)-1-(3-methyl-6-(4-methyl-3,4-dihydro-2H-benzo[b][1,4]oxazin-7-yl)-3H-imidazo[4,5-c]pyridin-4-yloxy)ethyl)pyrrolidin-2-one]: the IC50 is 8.93 nM.

As to `C[C@@H](Oc1cc(-c2ccc(N3CCN(C(=O)OC(C)(C)C)CC3)cn2)cc2ncsc12)[C@H]1CNC(=O)C1` (stereo in doubt) [tert-butyl 4-(6-(7-((R)-1-((R)-5-oxopyrrolidin-3-yl)ethoxy)benzo[d]thiazol-5-yl)pyridin-3-yl)piperazine-1-carboxylate], the IC50 was found to be 5.16 nM.

Turning to `C[C@@H](Oc1cc(-c2ccc(N3CCOCC3)cc2)cc2ncsc12)[C@H]1CNC(=O)C1` (stereo in doubt) [(R)-4-((R)-1-((5-(4-morpholinophenyl)benzo[d]thiazol-7-yl)oxy)ethyl)pyrrolidin-2-one], the IC50 was 1.82 nM.

For the compound `C[C@@H](Oc1nc(-c2cnn(CC(F)F)c2)cc2ncn(C)c12)[C@H]1CNC(=O)C1` [(R)-4-((R)-1-(6-(1-(2,2-difluoroethyl)-1H-pyrazol-4-yl)-3-methyl-3H-imidazo[4,5-c]pyridin-4-yloxy)ethyl)pyrrolidin-2-one], the IC50 came to 17.7 nM.

Turning to `C[C@@H](Oc1cc(-c2cnn(C3CCC3)c2)cc2ncsc12)[C@H]1CNC(=O)C1` (stereo in doubt) [(R)-4-((R)-1-((5-(1-cyclobutyl-1H-pyrazol-4-yl)benzo[d]thiazol-7-yl)oxy)ethyl)pyrrolidin-2-one], the IC50 stood at 0.693 nM.

For `C[C@@H](Oc1nc(-c2cnn(C3CCOCC3)c2)cc2ncn(C)c12)[C@H]1CNC(=O)C1` [(R)-4-((R)-1-(3-methyl-6-(1-(tetrahydro-2H-pyran-4-yl)-1H-pyrazol-4-yl)-3H-imidazo[4,5-c]pyridin-4-yloxy)ethyl)pyrrolidin-2-one], the IC50 turned out to be 10.2 nM.

Regarding `COc1ccc(-c2cc(O[C@H](C)[C@H]3CNC(=O)C3)c3c(Cl)cnn3c2)cc1OC` [(R)-4-((R)-1-((3-chloro-6-(3,4-dimethoxyphenyl)pyrazolo[1,5-a]pyridin-4-yl)oxy)ethyl)pyrrolidin-2-one], the IC50 was found to be 1.07 nM.

As to `COc1ccc(-c2cc3ncn(C4COC4)c3c(O[C@H](C)[C@H]3CNC(=O)C3)n2)cc1OC` [(R)-4-((R)-1-(6-(3,4-dimethoxyphenyl)-3-(oxetan-3-yl)-3H-imidazo[4,5-c]pyridin-4-yloxy)ethyl)pyrrolidin-2-one], the IC50 stood at 54.1 nM.

Turning to `C[C@@H](Oc1nc(-c2cnn(C(C)(C)C)c2)cc2ncn(C(F)F)c12)[C@H]1CNC(=O)C12CC2` [(R)-7-((R)-1-((6-(1-(tert-butyl)-1H-pyrazol-4-yl)-3-(difluoromethyl)-3H-imidazo[4,5-c]pyridin-4-yl)oxy)ethyl)-5-azaspiro[2.4]heptan-4-one], the half-inhibitory concentration (IC50) worked out at 35.1 nM.

With `C[C@@H](Oc1cc(-c2ccc(N3CCOCC3)cn2)cc2ncsc12)[C@H]1CNC(=O)C1` (stereo in doubt) [(R)-4-((R)-1-((5-(5-morpholinopyridin-2-yl)benzo[d]thiazol-7-yl)oxy)ethyl)pyrrolidin-2-one], the IC50 came to 1.88 nM.

As to `COc1ccc(-c2cc(O[C@H](C)[C@H]3CNC(=O)C3)c3c(C)cnn3c2C)cc1OC` [(R)-4-((R)-1-((6-(3,4-dimethoxyphenyl)-3,7-dimethylpyrazolo[1,5-a]pyridin-4-yl)oxy)ethyl)pyrrolidin-2-one], the IC50 is 53.7 nM.

With `C[C@@H](Oc1cc(-c2ccc(N3CCN(C4COC4)CC3)cn2)cc2ncsc12)[C@H]1CNC(=O)C1` (stereo in doubt) [(R)-4-((R)-1-((5-(5-(4-(oxetan-3-yl)piperazin-1-yl)pyridin-2-yl)benzo[d]thiazol-7-yl)oxy)ethyl)pyrrolidin-2-one], the IC50 was found to be 1.73 nM.

Staying with this assay, now noted: table 'ALL NEW COMPOUNDS IN 2014', 20 μM ATP, 1 μM biotinylated peptide, 0.015 nM Syk, 30 min at room temperature, read-out: Syk IC50.
In the case of `Cc1nc(-c2cc(O[C@H](C)[C@H]3CNC(=O)C3)c3c(c2)ncn3C2CC2)sc1C` [(R)-4-((R)-1-((1-cyclopropyl-5-(4,5-dimethylthiazol-2-yl)-1H-benzo[d]imidazol-7-yl)oxy)ethyl)pyrrolidin-2-one], the half-maximal inhibitory concentration (IC50) was determined as 1.41 nM.

Regarding `C[C@@H](Oc1cc(-c2ccc(N3CCN(C4COC4)CC3)cc2F)cc2ncn(C3CC3)c12)[C@H]1CNC(=O)C1` [(R)-4-((R)-1-((1-cyclopropyl-5-(2-fluoro-4-(4-(oxetan-3-yl)piperazin-1-yl)phenyl)-1H-benzo[d]imidazol-7-yl)oxy)ethyl)pyrrolidin-2-one], the IC50 was found to be 2.76 nM.

As for `C[C@@H](Oc1cc(-c2cnn(C3COC3)c2)cc2ncn(C3CC3)c12)[C@H]1CNC(=O)C1` [(R)-4-((R)-1-((1-cyclopropyl-5-(1-(oxetan-3-yl)-1H-pyrazol-4-yl)-1H-benzo[d]imidazol-7-yl)oxy)ethyl)pyrrolidin-2-one], the IC50 was 3.21 nM.

For the compound `C[C@@H](Oc1nc(-c2cnc(C(C)(C)O)s2)cc2ncn(C3CC3)c12)[C@H]1CNC(=O)C1` [(R)-4-((R)-1-((3-cyclopropyl-6-(2-(2-hydroxypropan-2-yl)thiazol-5-yl)-3H-imidazo[4,5-c]pyridin-4-yl)oxy)ethyl)pyrrolidin-2-one], the IC50 stood at 7.54 nM.

For `C[C@@H](Oc1cc(-c2ccncn2)cc2ncn(C3CC3)c12)[C@H]1CNC(=O)C1` [(R)-4-((R)-1-((1-cyclopropyl-5-(pyrimidin-4-yl)-1H-benzo[d]imidazol-7-yl)oxy)ethyl)pyrrolidin-2-one], the IC50 is 24.6 nM.

Turning to `C[C@@H](Oc1nc(-c2cnc(C3CCOCC3)s2)cc2ncn(C3CC3)c12)[C@H]1CNC(=O)C1` [(R)-4-((R)-1-((3-cyclopropyl-6-(2-(tetrahydro-2H-pyran-4-yl)thiazol-5-yl)-3H-imidazo[4,5-c]pyridin-4-yl)oxy)ethyl)pyrrolidin-2-one], the 50% inhibitory concentration (IC50) was 3.54 nM.

On to `Cc1cc(-c2cc(O[C@H](C)[C@H]3CNC(=O)C3)c3c(c2)ncn3C2CC2)ccc1N1CCN(C2COC2)CC1` [(R)-4-((R)-1-((1-cyclopropyl-5-(3-methyl-4-(4-(oxetan-3-yl)piperazin-1-yl)phenyl)-1H-benzo[d]imidazol-7-yl)oxy)ethyl)pyrrolidin-2-one], for which the IC50 came to 2.15 nM.

As to `C[C@@H](Oc1cc(-c2cnn(C(C)(C)C)c2)cc2ncn(C3CC3)c12)[C@H]1CNC(=O)C1` [(R)-4-((R)-1-((5-(1-(tert-butyl)-1H-pyrazol-4-yl)-1-cyclopropyl-1H-benzo[d]imidazol-7-yl)oxy)ethyl)pyrrolidin-2-one], the IC50 is 0.454 nM.

Turning to `O=C1C[C@@H](COc2nc(-c3ccc(N4CCN(C5COC5)CC4)cc3)cc3ncn(C4CC4)c23)CN1` [(R)-4-(((3-cyclopropyl-6-(4-(4-(oxetan-3-yl)piperazin-1-yl)phenyl)-3H-imidazo[4,5-c]pyridin-4-yl)oxy)methyl)pyrrolidin-2-one], the IC50 was found to be 65.3 nM.

As for `Cc1cc(-c2cc3ncn(C4CC4)c3c(O[C@H](C)[C@H]3CNC(=O)C3)n2)ccc1N1CCN(C2COC2)CC1` [(R)-4-((R)-1-((3-cyclopropyl-6-(3-methyl-4-(4-(oxetan-3-yl)piperazin-1-yl)phenyl)-3H-imidazo[4,5-c]pyridin-4-yl)oxy)ethyl)pyrrolidin-2-one], the IC50 worked out at 1.44 nM.

Consider `C[C@@H](Oc1nc(-c2cnc(N3CCOCC3)s2)cc2ncn(C3CC3)c12)[C@H]1CNC(=O)C1` [(R)-4-((R)-1-((3-cyclopropyl-6-(2-morpholinothiazol-5-yl)-3H-imidazo[4,5-c]pyridin-4-yl)oxy)ethyl)pyrrolidin-2-one], for which the IC50 came to 2.13 nM.

For the compound `C[C@@H](Oc1cc(-c2ccc3c(cnn3C)c2)cc2ncn(C3CC3)c12)[C@H]1CNC(=O)C1` [(R)-4-((R)-1-((1-cyclopropyl-5-(1-methyl-1H-indazol-5-yl)-1H-benzo[d]imidazol-7-yl)oxy)ethyl)pyrrolidin-2-one], the IC50 came to 5.02 nM.

Consider `C[C@@H](Oc1nc(-c2ccc3c(c2)NCCN3C)cc2ncn(C3CC3)c12)[C@H]1CNC(=O)C1` [(R)-4-((R)-1-((3-cyclopropyl-6-(1-methyl-1,2,3,4-tetrahydroquinoxalin-6-yl)-3H-imidazo[4,5-c]pyridin-4-yl)oxy)ethyl)pyrrolidin-2-one], for which the IC50 amounted to 2.25 nM.
